From US11046714B2, “2,2-difluorodioxolo A2A receptor antagonists” (Merck Sharp & Dohme Corp., priority 2013, dated 2021)

Biological target: human A2A receptor (Homo sapiens (Human), UniProt P29274)
Test: competition binding assay using Scintillation Proximity technology
Conditions: membranes from CHO-K1 cells expressing the human A2a receptor; 2.0 nM tritiated compound; Cheng-Prusoff
Experimental: The utility of the compounds in accordance with the present invention as A2A receptor antagonists may be readily determined without undue experimentation by methodologies well known in the art, including by a competition binding assay using Scintillation Proximity technology. Briefly, membranes from CHO-K1 cells expressing the human A2A receptor are incubated with a test compound at various concentrations, e.g., ranging from 3000 nM to 0.15 nM, in a reaction mixture also containing a tritiated form of 5-amino-7-[2-phenethyl]-2-(furan-2-yl)-7H-pyrazolo[4,3-e][1,2,4]triazolo[1,5-c]pyrimidine (the tritiated compound) and wheatgerm agglutin-coated yttrium silicate SPA beads at room temperature. The beads are then allowed to settle to the bottom of the wells, after which the membrane-associated radioactivity is determined by scintillation counting in a microplate reader. Ki values can be determined using the Cheng-Prusoff equation.
Thus, 1.0 μg of membranes from CHO-K1 cells expressing the human A2a receptor were incubated with a compound of the invention at concentrations ranging from 3000 nM to 0.15 nM in a reaction mixture also containing 2.0 nM of a tritiated form of 5-amino-7-[2-phenethyl]-2-(furan-2-yl)-7H-pyrazolo[4,3-e][1,2,4]triazolo[1,5-c]pyrimidine (the tritiated compound) and 100 μg of wheatgerm agglutin-coated yttrium silicate SPA beads for one hour at room temperature with agitation. The beads were then allowed to settle to the bottom of the wells for 1 hr, after which the membrane-associated radioactivity was determined by scintillation counting in a TopCount microplate reader. Ki values were determined using the Cheng-Prusoff equation.
Summary of Materials and Methods Used in A2a Activity Determination:
• Membranes from CHO-K1 cells expressing the human Adenosine2A receptor (Perkin-Elmer #RBHA2AM400UA). • The tritiated compound was prepared according to published methods. • Wheatgerm agglutinin-coated yttrium silicate SPA beads (GE Healthcare #RPNQ0023). Dilute to 25 mg/ml in Assay Buffer. • Assay Buffer: Dulbecco's calcium and magnesium free phosphate buffered saline+10 mM MgCl2 • Adenosine deaminase (ADA) from calf intestine, 10 mg/2 ml (Roche #10 102 105 001). • DMSO • A2a antagonist standard (9-chloro-1-(2-furanyl)-[1,2,4]triazolo[1,5-c]quinazolin-5-amine from Tocris Bioscience) Compound Dilution • Make eight 1:3 serial dilutions in 100% DMSO from a 3 mM compound stock. • Transfer 50 nL of compound into a 384-well OptiPlate (Perkin Elmer). • Typically, final concentrations of compound used in the assay ranged from 3000 nM to 0.152 nM. Radioisotope • Dilute a solution of the tritiated compound to 5.0 nM in assay buffer. This is a 2.5× solution. The final concentration in the assay is 2.0 nM. Calculate the concentration by counting two 5 μL aliquots. Membrane Preparation • Use 1.0 μg of membrane/well. Dilute membranes to 33 μg/mL in assay buffer. Treat with 20 μg/mL ADA for 15 minutes at room temperature to degrade endogenous adenosine. Membrane-Bead Mixture • Use 100 μg/well wheatgerm agglutinin-coated yttrium silicate SPA beads. • Mix ADA-treated membranes and SPA beads together for 30 min prior to assay. Assay Assembly • To the Perkin-Elmer Optiplate-384 containing the compound titration add 20 μL of 2.5× solution of the tritiated compound and 30 μL of the membrane-bead mixture. Incubate for one hour at room temperature with agitation. • Include total binding (assay buffer+1% DMSO) and non-specific binding (CGS 15943, 1 μM) wells. Counting • Allow the beads to settle for one hour. • Count in TopCount. Calculations • A curve fitting program (i.e., Prism, Activity Base, Chemcart) is used to determine the EC50. The Ki value is calculated using the Cheng-Prusoff equation. Ki=EC50/(1+(radioligand concentration/Kd))

Chain of human A2A receptor (P29274 whole entry): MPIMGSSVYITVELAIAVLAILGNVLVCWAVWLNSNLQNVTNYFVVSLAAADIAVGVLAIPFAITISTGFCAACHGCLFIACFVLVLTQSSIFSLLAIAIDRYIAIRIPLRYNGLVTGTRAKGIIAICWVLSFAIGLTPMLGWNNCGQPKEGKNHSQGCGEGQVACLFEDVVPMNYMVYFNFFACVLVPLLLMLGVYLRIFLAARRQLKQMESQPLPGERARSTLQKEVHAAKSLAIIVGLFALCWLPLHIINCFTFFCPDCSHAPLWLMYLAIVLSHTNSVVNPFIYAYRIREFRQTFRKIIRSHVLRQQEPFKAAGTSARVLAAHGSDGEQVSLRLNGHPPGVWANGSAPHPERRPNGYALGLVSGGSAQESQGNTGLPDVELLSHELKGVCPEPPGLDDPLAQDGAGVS

Row | SMILES | Ki [nM]
1 | Cc1nc2c3ccc4c(c3nc(N)n2n1)OC(F)(F)O4 [Example 2, 2,2-difluoro-8-methyl-[1,3]dioxolo[4,5-h][1,2,4]triazolo[1,5-c]quinazolin-5-amine] | 6.2
2 | Nc1nc2c3c(ccc2c2nc(Cc4cccnc4Cl)nn12)OC(F)(F)O3 [Example 3, 8-((2-chloropyridin-3-yl)methyl)-2,2-difluoro-[1,3]dioxolo[4,5-h][1,2,4]triazolo[1,5-c]quinazolin-5-amine] | 2.9
3 | Nc1nc2c3c(ccc2c2nc(Cc4cccnc4N4CC[C@@H](c5ccc(F)cc5)C4)nn12)OC(F)(F)O3 [Example 4, (S)-2,2-difluoro-8-((2-(3-(4-fluorophenyl)pyrrolidin-1-yl)pyridin-3-yl)methyl)-[1,3]dioxolo[4,5-h][1,2,4]triazolo[1,5-c]quinazolin-5-amine] | 8.3
4 | Nc1nc2c3c(ccc2c2nc(Cc4cccnc4N4CC[C@@H](c5ccc(C(F)(F)F)cc5)C4)nn12)OC(F)(F)O3 [Example 5, (S)-2,2-difluoro-8-((2-(3-(4-(trifluoromethyl)phenyl)pyrrolidin-1-yl)pyridin-3-yl)methyl)-[1,3]dioxolo[4,5-h][1,2,4]triazolo[1,5-c]quinazolin-5-amine] | 15
5 | Nc1nc2c3c(ccc2c2nc(CCN4Cc5cccnc5C4)nn12)OC(F)(F)O3 [Example 6] | 6.5
6 | Nc1nc2c3c(ccc2c2nc(CCN4Cc5ccc(C(F)(F)F)cc5C4)nn12)OC(F)(F)O3 [Example 7, 2,2-difluoro-8-{2-[5-(trifluoromethyl)-1,3-dihydro-2H-isoindol-2-yl]ethyl}[1,3]-dioxolo[4,5-h][1,2,4]triazolo [1,5-c]quinazolin-5-amine] | 3.1
7 | Nc1nc2c3c(ccc2c2nc(CCN4Cc5ccc(F)cc5C4)nn12)OC(F)(F)O3 [Example 8, 2,2-difluoro-8-[2-(5-fluoro-1,3-dihydro-2H-isoindol-2-yl)ethyl][1,3]dioxolo[4,5-h][1,2,4]triazolo[1,5-c]quinazolin-5-amine] | 2.1
8 | Nc1nc2c3c(ccc2c2nc(CCN4Cc5cnc(C(F)(F)F)nc5C4)nn12)OC(F)(F)O3 [Example 9, 2,2-difluoro-8-{2-[2-(trifluoromethyl)-5,7-dihydro-6H-pyrrolo[3,4-d]pyrimidin-6-yl]ethyl}[1,3]dioxolo[4,5-h][1,2,4]triazolo[1,5-c]quinazolin-5-amine] | 3.8
9 | CCc1nnc2n1CCN(CCc1nc3c4ccc5c(c4nc(N)n3n1)OC(F)(F)O5)C2 [Example 10, 8-[2-(3-ethyl-5,6-dihydro[1,2,4]triazolo[4,3-a]pyrazin-7(8H)-yl)ethyl]-2,2-difluoro[1,3]dioxolo[4,5-h][1,2,4]triazolo[1,5-c]quinazolin-5-amine] | 1.6
10 | Nc1nc2c3c(ccc2c2nc(CCN4Cc5ccncc5C4)nn12)OC(F)(F)O3 [Example 11, 8-[2-(1,3-dihydro-2H-pyrrolo[3,4-c]pyridin-2-yl)ethyl]-2,2-difluoro[1,3] dioxolo[4,5-h][1,2,4]triazolo [1,5-c]quinazolin-5-amine] | 2.1
11 | Cc1nc2c(o1)CN(CCc1nc3c4ccc5c(c4nc(N)n3n1)OC(F)(F)O5)CC2 [Example 12, 2,2-difluoro-8-[2-(2-methyl-6,7-dihydro[1,3]oxazolo[5,4-c]pyridin-5(4H)-yl)ethyl][1,3] dioxolo[4,5-h][1,2,4]triazolo [1,5-c]quinazolin-5-amine] | 1.5
12 | Cc1nc2c(s1)CCN(CCc1nc3c4ccc5c(c4nc(N)n3n1)OC(F)(F)O5)C2 [Example 13, 2,2-difluoro-8-[2-(2-methyl-6,7-dihydro[1,3]thiazolo[4,5-c]pyridin-5(4H)-yl)ethyl][1,3] dioxolo[4,5-h][1,2,4]triazolo [1,5-c]quinazolin-5-amine] | 1.8
13 | Nc1nc2c3c(ccc2c2nc(CCN4CCc5nc(C6CC6)oc5C4)nn12)OC(F)(F)O3 [Example 14, 8-[2-(2-cyclopropyl-6,7-dihydro[1,3]oxazolo[5,4-c]pyridin-5(4H)-yl)ethyl]-2,2-difluoro[1,3]dioxolo[4,5-h][1,2,4]triazolo[1,5-c]quinazolin-5-amine] | 0.9
14 | Nc1nc2c3c(ccc2c2nc(CCN4CC(F)C4)nn12)OC(F)(F)O3 [Example 15, 2,2-difluoro-8-[2-(3-fluoroazetidin-1-yl)ethyl] [1,3]dioxolo[4,5-h][1,2,4] triazolo[1,5-c]quinazolin-5-amine] | 2.5
15 | CC1(F)CN(CCc2nc3c4ccc5c(c4nc(N)n3n2)OC(F)(F)O5)C1 [Example 16, 2,2-difluoro-8-[2-(3-fluoro-3-methylazetidin-1-yl)ethyl] [1,3]dioxolo[4,5-h][1,2,4] triazolo[1,5-c]quinazolin-5-amine] | 3.2
16 | CCC1(F)CN(CCc2nc3c4ccc5c(c4nc(N)n3n2)OC(F)(F)O5)C1 [Example 17, 8-[2-(3-ethyl-3-fluoroazetidin-1-yl)ethyl]-2,2-difluoro[1,3] dioxolo[4,5-h][1,2,4]triazolo [1,5-c]quinazolin-5-amine] | 3.5
17 | Nc1nc2c3c(ccc2c2nc(CCN4CC(F)(C5CC5)C4)nn12)OC(F)(F)O3 [Example 18, 8-[2-(3-cyclopropyl-3-fluoroazetidin-1-yl)ethyl]-2,2-difluoro[1,3]dioxolo[4,5-h][1,2,4]triazolo[1,5-c]quinazolin-5-amine] | 1.6
18 | Nc1nc2c3c(ccc2c2nc(CCN4CC(F)(F)C4)nn12)OC(F)(F)O3 [Example 19, 8-[2-(3,3-difluoroazetidin-1-yl)ethyl]-2,2-difluoro[1,3] dioxolo[4,5-h][1,2,4]triazolo [1,5-c]quinazolin-5-amine] | 3
19 | Nc1nc2c3c(ccc2c2nc(CCN4CC(O)(C(F)(F)F)C4)nn12)OC(F)(F)O3 [Example 20, 1-[2-(5-amino-2,2-difluoro [1,3]diozolo[4,5-h][1,2,4]triazolo[1,5-c]quinazolin-8-yl)ethyl]-3-(trifluoromethyl) azetidin-3-ol] | 12
20 | Nc1nc2c3c(ccc2c2nc(CCN4CC(F)(C(F)(F)F)C4)nn12)OC(F)(F)O3 [Example 21, 2,2-difluoro-8-{2-[3-fluoro-3-(trifluoromethyl)azetidin-1-yl]ethyl}[1,3]dioxolo[4,5-h][1,2,4]triazolo[1,5-c]quinazolin-5-amine] | 3.4
21 | C[C@@H]1C[C@H](F)CN1CCc1nc2c3ccc4c(c3nc(N)n2n1)OC(F)(F)O4 [Example 22, 2,2-difluoro-8-{2-[(2R,4S)-4-fluoro-2-methylpyrrolidin-1-yl]ethyl}[1,3]dioxolo[4,5-h][1,2,4]triazolo[1,5-c]quinazolin-5-amine] | 1.5
22 | Nc1nc2c3c(ccc2c2nc(CCN4C[C@H](F)[C@@H](F)C4)nn12)OC(F)(F)O3 [Example 23, 8-{2-[(3S,4S)-3,4-difluoropyrrolidin-1-yl]ethyl}-2,2-difluoro[1,3]dioxolo[4,5-h][1,2,4]triazolo[1,5-c]quinazolin-5-amine] | 1.6
23 | Nc1nc2c3c(ccc2c2nc(CCN4CCC(F)(F)C4)nn12)OC(F)(F)O3 [Example 24, 8-[2-(3,3-difluoropyrrolidin-1-yl)ethyl]-2,2-difluoro[1,3] dioxolo[4,5-h][1,2,4]triazolo [1,5-c]quinazolin-5-amine] | 1.4
24 | C[C@@H]1CC(F)(F)CN1CCc1nc2c3ccc4c(c3nc(N)n2n1)OC(F)(F)O4 [Example 25] | 1.1
25 | C[C@H]1CC(F)(F)CN1CCc1nc2c3ccc4c(c3nc(N)n2n1)OC(F)(F)O4 [Example 26, 8-{2-[(2S)-4,4-difluoro-2-methylpyrrolidin-1-yl]ethyl}-2,2-difluoro[1,3]dioxolo[4,5-h][1,2,4]triazolo[1,5-c]quinazolin-5-amine] | 3
